In patent publication US12611404B2, “Aza-aryl 1H-pyrazol-1-yl benzene sulfonamides” (ChemoCentryx, Inc., priority 2012, dated 2026) one finds IC50 data, which are given here for 59 compounds.

Bounds are passed on as bounds.

For this assay, the target named is T1, CCR(9) (Homo sapiens, UniProt P51686).
T1 construct: CCR(9)-expressing cells such as T cell line MOLT-4 cells; host or cells: MOLT-4 cells
T1 sequence (P51686 1-369): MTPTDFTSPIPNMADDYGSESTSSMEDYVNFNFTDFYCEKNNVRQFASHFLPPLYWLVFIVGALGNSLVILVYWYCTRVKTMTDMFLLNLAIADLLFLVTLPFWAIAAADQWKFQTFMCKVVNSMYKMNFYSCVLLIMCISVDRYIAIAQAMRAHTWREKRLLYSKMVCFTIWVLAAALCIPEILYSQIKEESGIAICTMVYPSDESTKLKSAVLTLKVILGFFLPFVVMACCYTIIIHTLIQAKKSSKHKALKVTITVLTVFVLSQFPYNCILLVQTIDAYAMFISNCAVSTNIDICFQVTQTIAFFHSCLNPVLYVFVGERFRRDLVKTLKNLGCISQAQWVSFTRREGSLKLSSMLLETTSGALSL
Briefly: serum chemotaxis (migration) assay, MOLT-4 cells in human serum, TECK. The class given is cell-based. The note with it: read-out: A2. On the procedure: In vitro cell chemotaxis assays can be performed (but are not limited to this format) using the 96-well microchamber (called ChemoTX™). The ChemoTX™ system is well known to those skilled in the art as a type of chemotactic/cell migration instrument. In this assay, CCR(9)-expressing cells (such as MOLT-4) are first incubated with a compound of interest, such as a possible CCR(9) antagonist at increasing concentrations. Typically, fifty thousand cells per well are used, but the amount can range from 10^3-10^6 cells per well. The chemokine ligand (for example, CCR(9) ligand TECK, typically at 50 nM (but can range from 5-100 nM)), is placed at the lower chamber and the migration apparatus is assembled. Twenty microliters of test compound-treated cells are then placed onto the membrane. Migration is allowed to take place at 37° C. for a period of time, typically 2.5 hours for CCR(9). At the end of the incubation, the number of cells that migrated across the membrane into the lower chamber is then quantified. The efficacy of a compound as an inhibitor of chemokine-mediated cell migration can be calculated as an IC50 (the concentration needed to reduce cell migration by 50%) or IC90 (for 90% inhibition).
MOLT-4 cells were obtained from the American Type Culture Collection (Manassas, VA) and cultured in RPMI tissue culture medium supplemented with 10% fetal calf serum (FCS) in a humidified 5% CO2 incubator at 37° C. Recombinant human chemokine proteins TECK was obtained from R&D Systems (Minneapolis, MN). ChemoTX® chemotaxis microchambers were purchased from Neuro Probe (Gaithersburg, MD). CyQUANT® cell proliferation kits were purchased from Molecular Probes (Eugene, Oregon). Calcium indicator dye Fluo-4 AM was purchased from Molecular Devices (Mountain View, CA).
A serum chemotaxis assay was used to determine the efficacy of potential receptor antagonists at blocking the migration mediated through chemokine receptors, such as CCR(9). This assay was performed using the ChemoTX® microchamber system with a 5-μm pore-sized polycarbonate membrane. MOLT-4 cells were collected by centrifugation at 400×g at room temperature, then suspended at 50 million/ml in human serum, containing 50 mM HEPES (final pH of 7.2). The compound being tested or an equivalent volume of its solvent (DMSO) was then added to the cell/serum mixture at a final DMSO concentration of 0.125% (v/v), and this mixture was then incubated together at 37° C. for one hour. Separately, recombinant human TECK was diluted with chemotaxis buffer (HBSS+0.1% BSA), generally spanning a range from 0.1 nM to 500 nM, after which 29 μl of diluted chemokine was placed in the lower wells of the ChemoTX® plate. The 5-μm (pore size) polycarbonate membrane was placed onto the plate, and 20 μL of the cell/compound mixture was transferred onto each well of the membrane. The plates were incubated at 37° C. for 90 minutes, after which the polycarbonate membranes were removed and 5 μl of the DNA-intercalating agent CyQUANT (Invitrogen, Carlsbad, CA) was added to the lower wells. The amount of fluorescence, corresponding to the number of migrated cells, was measured using a Spectrafluor Plus plate reader (TECAN, San Jose, CA).
The A2 values were calculated from the following equation, comparing the efficacy of the test compound with that of the DMSO-only control at equi-active chemokine levels: Log(A2)=log[drug(M)]−log [(A′/A)−1]
where A reflects the potency of the agonist in the absence of antagonist and A′ reflects the potency of the agonist in the presence of antagonist at a given concentration of drug ([drug(M)]).
With `Cc1cc(NS(=O)(=O)c2ccc(C(C)(C)C)c(F)c2)n(-c2ccc(C#N)c3ncccc23)n1`, the IC50 is under 500 nM.
Then `Cc1ccc2c(-n3nc(C)cc3NS(=O)(=O)c3ccc(C(C)(C)C)cc3)cccc2n1`, with under 500 nM.
Then `CC(C)Oc1ccc(S(=O)(=O)Nc2cc(C(F)(F)F)nn2-c2cccc3ncccc23)cc1`, with over 2500 nM; and `Cc1cc(NS(=O)(=O)c2ccc(C(C)(C)C)cc2)n(-c2cccc3c[n+]([O-])ccc23)n1`, with over 2500 nM; and `CC(C)(C)c1ccc(S(=O)(=O)Nc2cc(C(F)(F)F)nn2-c2cccc3ncccc23)cc1`, with 501 to 2500 nM.
In the case of `Cc1cc(NS(=O)(=O)c2ccc(C(C)C)cc2)n(-c2cccc3ncccc23)n1` it was 501 to 2500 nM; in that of `Cc1cc(NS(=O)(=O)c2ccc(C(C)(C)C)cc2)n(-c2ccc(C)c3ncccc23)n1`, 501 to 2500 nM; in that of `Cc1cc(NS(=O)(=O)c2ccc(OCC(C)C)cc2)n(-c2cccc3ncccc23)n1`, over 2500 nM.
As to `Cc1cc(NS(=O)(=O)c2ccc(C(C)(C)C)c(F)c2)n(-c2cccc3ncccc23)n1`, the IC50 is under 500 nM.
In the case of `Cc1cc(-n2nc(C)cc2NS(=O)(=O)c2ccc(C(C)(C)C)cc2)c2ccccc2n1` it was 501 to 2500 nM; in that of `CC(C)c1ccc(S(=O)(=O)Nc2cc(C(F)F)nn2-c2cccc3ncccc23)cc1`, 501 to 2500 nM; in that of `Cc1cc(NS(=O)(=O)c2ccc(C(C)(C)C)cc2)n(-c2ccnc3ccccc23)n1`, 501 to 2500 nM.
Then `Cc1cc(NS(=O)(=O)c2ccc(C(C)(C)C)cc2)n(-c2cccc3cnccc23)n1`, with 501 to 2500 nM; and `CC(C)c1ccc(S(=O)(=O)Nc2cc(C(F)(F)F)nn2-c2cccc3ncccc23)cc1`, with 501 to 2500 nM.
Then `Cc1cc(NS(=O)(=O)c2ccc(C(C)(C)C)cc2)n(-c2ccc(Cl)c3ncccc23)n1`, with under 500 nM; and `Cc1cc(NS(=O)(=O)c2ccc(C(C)(C)C)cc2)n(-c2nccc3ccccc23)n1`, with 501 to 2500 nM; and `Cc1cc(NS(=O)(=O)c2ccc(C(C)(C)C)cc2)n(-c2cccc3c2ccc[n+]3[O-])n1`, with 501 to 2500 nM.
Turning to `Cc1cc(NS(=O)(=O)c2ccc(C(C)(C)C)cc2)n(-c2ccc(Br)c3ncccc23)n1`, the IC50 lay in the range of 501 to 2500 nM.
Then `Cc1cc(NS(=O)(=O)c2ccc(OC(F)(F)F)cc2)n(-c2cccc3ncccc23)n1`, with 501 to 2500 nM.
As to `Cc1cc(-n2nc(C)cc2NS(=O)(=O)c2ccc(C(C)(C)C)cc2)c2cccnc2c1`, the IC50 was in the range of 501 to 2500 nM.
Then `Cc1cc(NS(=O)(=O)c2ccc(C(C)(C)C)cc2)n(-c2cnnc3ccccc23)n1`, with 501 to 2500 nM.
Then `Cc1cc(NS(=O)(=O)c2ccc(OC(C)C)cc2)n(-c2cccc3ncccc23)n1`, with 501 to 2500 nM; and `Cc1cc(NS(=O)(=O)c2ccc(C(C)(C)C)cc2)n(-c2ccc(C#N)c3ncccc23)n1`, with 501 to 2500 nM.
Regarding `Cc1cc(NS(=O)(=O)c2ccc(C(C)(C)C)cc2)n(-c2ccc(N)c3ncccc23)n1`, the IC50 is under 500 nM.
Then `CCC(C)(C)c1ccc(S(=O)(=O)Nc2cc(C)nn2-c2cccc3ncccc23)cc1`, with 501 to 2500 nM.
Take `CC(C)(C)c1ccc(S(=O)(=O)Nc2cc(C(F)F)nn2-c2cccc3ncccc23)cc1`: the IC50 was under 500 nM.
Then `COc1ccc(-n2nc(C)cc2NS(=O)(=O)c2ccc(C(C)(C)C)c(F)c2)c2cccnc12`, with under 500 nM; and `CC(C)(C)c1ccc(S(=O)(=O)Nc2cc(CF)nn2-c2cccc3ncccc23)cc1F`, with under 500 nM.
Then `Cc1cc(NS(=O)(=O)c2ccc(C(C)(C)C)cc2)n(-c2n[nH]c(=O)c3ccccc23)n1`, with 501 to 2500 nM; and `Cc1cc(NS(=O)(=O)c2ccc(C(C)(C)C)c(Cl)c2)n(-c2cccc3ncccc23)n1`, with 501 to 2500 nM; and `Cc1cc(NS(=O)(=O)c2ccc(C(C)(C)C)cc2)n(-c2ncc(Cl)c3ccccc23)n1`, with over 2500 nM.
Then `Cc1cc(NS(=O)(=O)c2ccc(C(C)(C)C)c(F)c2)n(-c2ccc(N)c3ncccc23)n1`, with 501 to 2500 nM.
With `Cc1cc(NS(=O)(=O)c2ccc(C(C)(C)C)cc2)n(-c2cc(N)nc3ccccc23)n1`, the IC50 lay within 501 to 2500 nM.
In the case of `Cc1cc(NS(=O)(=O)c2ccc(C(C)(C)C)cc2)n(-c2nncc3ccccc23)n1` it was 501 to 2500 nM; in that of `Cc1cc(NS(=O)(=O)c2ccc(C(C)(C)C)c(F)c2)n(-c2cccc3nc(N)ccc23)n1`, under 500 nM; in that of `Cc1cc(NS(=O)(=O)c2ccc(C(C)(C)C)cc2)n(-c2cccc3c(N)nccc23)n1`, 501 to 2500 nM.
Then `CCOc1ccc(-n2nc(C)cc2NS(=O)(=O)c2ccc(C(C)(C)C)cc2)c2cccnc12`, with 501 to 2500 nM.
In the case of `COc1cnc(-n2nc(C)cc2NS(=O)(=O)c2ccc(C(C)(C)C)cc2)c2ccccc12` it was 501 to 2500 nM; in that of `Cc1cc(NS(=O)(=O)c2ccc(C(C)C)cc2)n(-c2cccc3cnccc23)n1`, 501 to 2500 nM.
Turning to `Cc1cc(NS(=O)(=O)c2ccc(C(C)(C)C)cc2)n(-c2nccc3ncccc23)n1`, the IC50 is 501 to 2500 nM.
On to `CC(C)(C)c1ccc(S(=O)(=O)Nc2cc(C(F)F)nn2-c2cccc3ncccc23)cc1F`, for which the IC50 lay within 501 to 2500 nM.
Then `COc1ccc(-n2nc(C)cc2NS(=O)(=O)c2ccc(C(C)(C)C)cc2)c2cccnc12`, with under 500 nM.
Then `COCc1cc(NS(=O)(=O)c2ccc(C(C)(C)C)cc2)n(-c2cccc3ncccc23)n1`, with under 500 nM; and `CC(C)(C)c1ccc(S(=O)(=O)Nc2cc(CF)nn2-c2cccc3ncccc23)cc1`, with under 500 nM; and `Cc1cc(NS(=O)(=O)c2ccc(OC(C)C)c(F)c2)n(-c2cccc3ncccc23)n1`, with 501 to 2500 nM.
In the case of `CC(C)(C)c1ccc(S(=O)(=O)Nc2cc(C#N)nn2-c2cccc3ncccc23)cc1` it was 501 to 2500 nM; in that of `Cc1cc(NS(=O)(=O)c2ccc(C(C)(C)C)cc2)n(-c2ccc(F)c3ncccc23)n1`, 501 to 2500 nM; in that of `Cc1cc(NS(=O)(=O)c2ccc(C(C)(C)C)cc2)n(-c2cnc(N)c3ccccc23)n1`, 501 to 2500 nM.
`Cc1cc(NS(=O)(=O)c2ccc(OC(C)C)cc2)n(-c2cccc3cnccc23)n1`: the IC50 was in the range of 501 to 2500 nM.
In the case of `Cc1cc(NS(=O)(=O)c2ccc(C(C)(C)C)cc2)n(-c2ccnc3cc(F)ccc23)n1` it was 501 to 2500 nM; in that of `Cc1cc(NS(=O)(=O)c2ccc(C(C)(C)C)cc2)n(-c2cncc3ccccc23)n1`, 501 to 2500 nM.
Then `Cc1cc(NS(=O)(=O)c2ccc(C(C)(C)C)cc2)n(-c2cccc3nc(N)ccc23)n1`, with under 500 nM.
Then `Cc1cc(NS(=O)(=O)c2ccc(C(C)(C)C)c(F)c2)n(-c2ccc(Br)c3ncccc23)n1`, with under 500 nM; and `Cc1cc(NS(=O)(=O)c2ccc(C(C)(C)C)cc2)n(-c2cccc3ncccc23)n1`, with under 500 nM; and `CC(C)(C)c1ccc(S(=O)(=O)Nc2ccnn2-c2cccc3ncccc23)cc1`, with over 2500 nM.
As to `CC(C)Oc1ccc(S(=O)(=O)Nc2cc(CF)nn2-c2cccc3ncccc23)cc1`, the IC50 lay in the range of 501 to 2500 nM.
Then `Cc1cc(NS(=O)(=O)c2ccc(C(C)(C)C)cc2)n(-c2ccnc3c(F)cccc23)n1`, with 501 to 2500 nM; and `CC(C)Oc1ccc(S(=O)(=O)Nc2cc(C(F)F)nn2-c2cccc3ncccc23)cc1`, with under 500 nM; and `CC(C)Oc1ccc(S(=O)(=O)Nc2cc(C(F)(F)F)nn2-c2cccc3cnccc23)cc1`, with 501 to 2500 nM.
